# Calls of active or inactive are those of the source. The rule behind the calls is not given here.
# Tested on: rodent carcinogenicity bioassays, tumor incidence
# Assay: CCRIS carcinogenicity studies
# Method in brief: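 Archive of carcinogenicity, mutagenicity, tumor promotion and tumor inhibition results drawn from journals, NCI reports and other sources, expert-reviewed; covers 1985-2011 and is no longer updated.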
structure (smiles),measurement,setting,value
Nc1ccc(S(=O)(=O)c2ccc(N)cc2)cc1,carcinogen call,"Species: MOUSE, Strain/Sex: B6C3F1/FEMALE, Route: ORAL, Dose: 0, 500, 1000 PPM IN DIET FOR 78 WK (STUDY DURATION: 105-108 WK), Dose: 0, 500, 1000 PPM IN DIET FOR 78 WK (STUDY DURATION: 105-108 WK)",inactive; negative
same,carcinogen call,"Species: MOUSE, Strain/Sex: B6C3F1/MALE, Route: ORAL, Dose: 0, 500, 1000 PPM IN DIET FOR 78 WK (STUDY DURATION: 105-106 WK), Dose: 0, 500, 1000 PPM IN DIET FOR 78 WK (STUDY DURATION: 105-106 WK)",inactive; negative
same,carcinogen call,"Species: RAT, Strain/Sex: BDIV/MALE,FEMALE, Route: GAVAGE, Dose: 100 MG/KG TO MOTHERS DURING PREGNANCY AND DURING WEANING, 52 G/KG (TOTAL DOSE) TO OFFSPRING AFTER WEANING, Tumor Site: Type of Lesion: THYROID GLAND: MALIGNANT C CELL TUMOR",active; positive
same,carcinogen call,"Species: RAT, Strain/Sex: F344/FEMALE, Route: ORAL, Dose: 0, 600, 1200 PPM IN DIET FOR 78 WK (STUDY DURATION: 105-106 WK), Dose: 0, 600, 1200 PPM IN DIET FOR 78 WK (STUDY DURATION: 105-106 WK)",inactive; negative
same,carcinogen call,"Species: RAT, Strain/Sex: F344/FEMALE, Route: ORAL, Dose: 0, 600, 1200 PPM IN DIET FOR 78 WK (STUDY DURATION: 105 WK), Dose: 0, 600, 1200 PPM IN DIET FOR 78 WK (STUDY DURATION: 105 WK)",inactive; negative
same,carcinogen call,"Species: RAT, Strain/Sex: F344/MALE, Route: ORAL, Dose: 0, 600, 1200 PPM IN DIET FOR 78 WK (STUDY DURATION: 104-106 WK), Dose: 0, 600, 1200 PPM IN DIET FOR 78 WK (STUDY DURATION: 104-106 WK), Tumor Site: Type of Lesion: SPLEEN: FIBROMA OR FIBROSARCOMA OR SARCOMA (NOS), PERITONEAL CAVITY: FIBROSARCOMA, SARCOMA (NOS)",active; positive
same,carcinogen call,"Species: RAT, Strain/Sex: F344/MALE, Route: ORAL, Dose: 0, 600, 1200 PPM IN DIET FOR 78 WK (STUDY DURATION: 105 WK), Dose: 0, 600, 1200 PPM IN DIET FOR 78 WK (STUDY DURATION: 105 WK), Tumor Site: Type of Lesion: SPLEEN OR PERITONEUM: SARCOMA",active; positive
same,carcinogen call,"Species: RAT, Strain/Sex: WISTAR/MALE, Route: ORAL, Dose: 0.025% INCREASED TO 0.3% BY THIRD MO, Tumor Site: Type of Lesion: MULTIPLE SITES",active; positive
Cc1ccc(S(=O)(=O)NC(=O)NN2CCCCCC2)cc1,carcinogen call,"Species: MOUSE, Strain/Sex: B6C3F1/FEMALE, Route: ORAL, Dose: 0, 5000, 10000 PPM IN DIET, Dose: 0, 5000, 10000 PPM IN DIET",inactive; negative
same,carcinogen call,"Species: MOUSE, Strain/Sex: B6C3F1/MALE, Route: ORAL, Dose: 0, 5000, 10000 PPM IN DIET, Dose: 0, 5000, 10000 PPM IN DIET",inactive; negative
same,carcinogen call,"Species: RAT, Strain/Sex: F344/FEMALE, Route: ORAL, Dose: 0, 5000, 10000 PPM IN DIET, Dose: 0, 5000, 10000 PPM IN DIET",inactive; negative
same,carcinogen call,"Species: RAT, Strain/Sex: F344/MALE, Route: ORAL, Dose: 0, 5000, 10000 PPM IN DIET, Dose: 0, 5000, 10000 PPM IN DIET",inactive; negative
O=C(O)C1C(C(=O)O)C2(Cl)C(Cl)=C(Cl)C1(Cl)C2(Cl)Cl (stereo unspecified),carcinogen call,"Species: MOUSE, Strain/Sex: B6C3F1/FEMALE, Route: ORAL, Dose: 0, 620, 1250 PPM IN DIET FOR 103 WK (STUDY DURATION: 104 WK), Dose: 0, 620, 1250 PPM IN DIET FOR 103 WK (STUDY DURATION: 104 WK)",inactive; negative
same,carcinogen call,"Species: MOUSE, Strain/Sex: B6C3F1/MALE, Route: ORAL, Dose: 0, 620, 1250 PPM IN DIET FOR 103 WK (STUDY DURATION: 104 WK), Dose: 0, 620, 1250 PPM IN DIET FOR 103 WK (STUDY DURATION: 104 WK), Tumor Site: Type of Lesion: LIVER: HEPATOCELLULAR ADENOMA, LIVER: HEPATOCELLULAR CARCINOMA, LIVER: HEPATOCELLULAR ADENOMA OR CARCINOMA, Tumor Site: Type of Lesion: LIVER: HEPATOCELLULAR ADENOMA, LIVER: HEPATOCELLULAR CARCINOMA, LIVER: HEPATOCELLULAR ADENOMA OR CARCINOMA",active; positive
same,carcinogen call,"Species: RAT, Strain/Sex: F344/FEMALE, Route: ORAL, Dose: 0, 620, 1250 PPM IN DIET FOR 103 WK (STUDY DURATION: 104 WK), Dose: 0, 620, 1250 PPM IN DIET FOR 103 WK (STUDY DURATION: 104 WK), Tumor Site: Type of Lesion: LIVER: NEOPLASTIC NODULE, LIVER: HEPATOCELLULAR CARCINOMA, LIVER: NEOPLASTIC NODULE OR HEPATOCELLULAR CARCINOMA, UTERUS:, Tumor Site: Type of Lesion: LIVER: NEOPLASTIC NODULE, LIVER: HEPATOCELLULAR CARCINOMA, LIVER: NEOPLASTIC NODULE OR HEPATOCELLULAR CARCINOMA, UTERUS:",active; positive
same,carcinogen call,"Species: RAT, Strain/Sex: F344/MALE, Route: ORAL, Dose: 0, 620, 1250 PPM IN DIET FOR 103 WK (STUDY DURATION: 104 WK), Dose: 0, 620, 1250 PPM IN DIET FOR 103 WK (STUDY DURATION: 104 WK), Tumor Site: Type of Lesion: LUNG: ALVEOLAR/BRONCHIOLAR ADENOMA, LUNG: ALVEOLAR/BRONCHIOLAR ADENOMA OR CARCINOMA, LIVER: NEOPLASTIC NODULE, LIVER: NE, Tumor Site: Type of Lesion: LUNG: ALVEOLAR/BRONCHIOLAR ADENOMA, LUNG: ALVEOLAR/BRONCHIOLAR ADENOMA OR CARCINOMA, LIVER: NEOPLASTIC NODULE, LIVER: NE",active; positive

# From PubChem BioAssay AID1259411 (Chemical Carcinogenesis Research Information System (CCRIS), 2018)
